Measured values from US20240385182A1, “MASKED FLUOROGENIC LIPID COMPOUNDS, LIPID PARTICLES COMPRISING THE SAME, AND METHODS OF USE THEREOF” (Rutgers, The State University of New Jersey, priority 2023, published 2024).

Columns and labels:
[1] = Photophysical characterization of probes and uncaged forms (relative fluorescence quantum yield, extinction coefficient, brightness); format: physicochemical
In short: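 Relative fluorescence quantum yields of caged probes and uncaged forms, referenced to coumarin 343 (ΦF 0.63 in ethanol) for triazole-coumarins and fluorescein (ΦF 0.79 in ethanol) for triazole-fluoresceins. Measured in Tris 50 mM, pH 7.5; coumarin largely aryloxide (TEG-TC pKa 7.1±0.1 by UV-Vis).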

[2] = test system: CD11b^+ macrophage population from BAL cells; experiment: Murine model of ITB-induced ALI: DPPC-TC fluorescence in BAL cells by flow cytometry; format: in vivo, mice; details: 0.5 mM LNPs (5 mol % probe) on day 3, BAL 3 hour-post instillation, n = 3
Excerpt: FIGS. 11A-11B: flow cytometry analysis of myeloid-derived BAL cells for migratory phenotype and DPPC-TC-ONOO^− probe activity in murine model of ALI. FIG. 11A: conceptual illustration of ITB-induced ALI and LNP instillation. FIG. 11B: classification of myeloid-derived BAL cells by migratory phenotype (CD11b+) and DPPC-TC fluorescence. Quadrant plots are shown for individual mice, which were used to quantify DPPC-TC as a measure of peroxynitrite generation. After successfully imaging the iNOS dependent peroxynitrite activity in both HeLa and RAW264.7, the potential of DPPC-TC-ONOO^− for detecting peroxynitrite generated in lung tissue injury using a pre-established murine model of ALI was explored (FIGS. 11A-11B). During ALI, release of cytokines and chemokines, such as tumor necrosis factor-alpha (TNF-α) and interleukin-1 beta ([…]), recruit macrophages and other immune cells to the site of injury. During the initial phase of injury (d0-d3), pro-inflammatory macrophages are dominant, which is associated with higher levels of iNOS expression. Herein, a previously reported ITB method was employed, which causes a severe inflammatory response characterized by infiltration of immune cells, which is dependent upon iNOS activation. For a generalizable and biocompatible instillation protocol, LNP concentrations ranging from 0.5 to 2.0 mM were evaluated. LNPs carrying DPPC-TC (5 mol % of the lipid content) were employed in C57BL6/J mice and the viability of the cells from BAL was analyzed via flow cytometry. Results indicated 94% viability at 0.5 mM LNP concentration, which was employed for the subsequent experiments. On d0, mice (C57BL6/J or iNOS^−/−) were anesthetized and received an intratracheal instillation of either PBS (control) or bleomycin (FIGS. 11A-11B). To detect the peroxynitrite generation during the early inflammatory response, mice were again anesthetized and instilled with 0.5 mM LNPs containing DPPC-TC-ONOO^− (5 mol % of the lipid content) on day 3. […] The migratory population was further analyzed for DPPC-TC signal quantification (Table 4).

Emmax [1]: 471.2 nm | Exmax [1]: 395.0 nm | Ext. Coeff. [1]: 2784 M⁻¹ cm⁻¹
Compound: CCCCCCCCCCCCCCCC(=O)OCC(COP(=O)([O-])OCC[N+](C)(C)Cc1cn(-c2cc3ccc(OC(=O)Oc4ccc(CCC(=O)C(F)(F)F)cc4)cc3oc2=O)nn1)OC(=O)CCCCCCCCCCCCCCC (racemic) [DPPC-TC-ONOO^−]
DPPC-TC p:n ratio ([2]; WT-ITB): 0.72 ± 0.008 | DPPC-TC p:n ratio ([2]; WT-PBS): 0.55 ± 0.021 | DPPC-TC p:n ratio ([2]; iNOS^−/−-ITB): 0.56 ± 0.018
